A short description of data set [1]: in vitro. As to conditions: human, primary human dermal fibroblasts, D. Fibroblast LC50, 6 days, Alamar blue. As for the experimental part:
(§1) In parallel with the VEGF and FGF screens, a normal cell toxicity assay was run. Primary Human Dermal Fibroblasts (Clonetics) were plated at 5000 cells/well. After 24 hours various concentrations of test compounds, were added in duplicate plates and 10% Tween-20 was added to four control wells to represent total death. At the same time a T-zero plate was generated. The plates were returned to the carbon dioxide incubator and on day 6 Alamar blue was added and the plates read after 3 hours.
(§2) Using a T-zero plate allows the observation of compounds that cause the cells to become static as well as inhibit growth.
For orientation: The colour change of resazurin is a common sign of viable cells or microbes.

Data set [2] has as its system HMVEC cells stimulated with VEGF 165. Briefly: VEGF driven HMVEC proliferation screen. In kind it is cell-based. On the procedure: (§3) HMVEC cells were plated on collagen-coated plates at 2500 cells/well for 24 hours. Various concentrations of test compounds were then added to duplicate plates. […] Anti-FGF antibody (final concentration of 5 μg/mL) was added to four control wells as a standard inhibitor. At the same time the compounds were added, a T-zero plate was generated (Alamar blue was added to a plate and read after three hours). The plates with the compounds were incubated for one hour at 37° C., 5% carbon dioxide. At this point, b-FGF was added (final concentration of 2.5 ng/mL). Tween-20 (10 μL) was added to four additional control wells to represent total death and the plates were returned to the carbon dioxide incubator for 6 days.
The assay was run identically using VEGF in place of b-FGF. The final concentration of VEGF 165, in this mode, was 10 ng/mL. The control inhibitor was anti-VEGF antibody (final concentration of […]). All other conditions were the same.

For data set [3], the system named is HMVEC cells stimulated with b-FGF. As to the kind of experiment: b-FGF driven HMVEC proliferation screen. It is filed as cell-based. As for the experimental part:
as §3

In data set [4] the test system is Primary Human Dermal Fibroblasts. Briefly: in vitro. The settings on record: read-out: D. Fibroblast LC50, 6 days, Alamar blue. As for the experimental part: as §1, §2
Setting [5] is: Homo sapiens, HMVEC, 144 h, VEGF 165 10 ng/mL, 6 days, Alamar blue, read-out: VEGF LC50.
The mark [6] stands for this setting: Homo sapiens, HMVEC, 144 h, b-FGF 2.5 ng/mL, 6 days, Alamar blue, read-out: b-FGF LC50.
[7] abbreviates: VEGF 165 10 ng/mL, 6 days, Alamar blue, read-out: VEGF LC50.
Where [8] appears, read: b-FGF 2.5 ng/mL, 6 days, Alamar blue, read-out: b-FGF LC50.

Structures can show the parent of a compound that is named as a salt. Where two headings read alike, the source gives them in different places.

In data set [1], `CC(C)CN1CCC[C@H]1C(=O)Nc1cccc2cccnc12` [Compound 63] showed a CC50 at 6 days of over 10000 nM. For the same compound, the CC50 is 5500 nM in data set [2] (setting [5]) and 4400 nM in data set [3] (setting [6]).

On to `O=C(Nc1ccc(N2CCOCC2)c2cccnc12)c1cc(Cl)ccn1` [Compound 51], for which, in data set [1], the CC50 at 6 days was over 10000 nM. The values for the CC50 in data set [2] (setting [5]) and in data set [3] (setting [6]) were 220 nM and 230 nM, respectively.

In the case of `O=C(Nc1cccc2cccnc12)c1cc(Oc2ccccc2)ccn1` [Compound 32, 4-phenoxypyridine-2-carboxylic acid quinolin-8-ylamide], in data set [1], the CC50 at 6 days is over 10000 nM. Further, the CC50 in data set [2] (setting [5]) came out at 1100 nM; in data set [3] (setting [6]) it was 1800 nM.

On to `CN1CCCC[C@H]1C(=O)Nc1cccc2cccnc12` [Compound 69], for which, in data set [1], the CC50 at 6 days is over 10000 nM. The figures for the CC50 in data set [2] (setting [5]) and in data set [3] (setting [6]) were 3100 nM and 2600 nM, respectively.

Take `Cc1cc(NC(=O)[C@@H]2CCCN2C)c2ncccc2c1` [Compound 67]: the CC50 at 6 days in data set [1] was over 10000 nM. In addition, the figures for the CC50 in data set [2] (setting [5]) and in data set [3] (setting [6]) were 230 nM and 350 nM, respectively.

For `CCN(C)c1ccccc1NC(=O)c1ccccn1` [Compound 106], the CC50 at 6 days in data set [1] was over 10000 nM. The CC50 in data set [2] (setting [5]) was determined as 1500 nM; in data set [3] (setting [6]), 1200 nM.

`COc1cc(NC(=O)c2cc(Cl)ccn2)c2ncccc2c1` [Compound 52] gave a CC50 at 6 days in data set [1] of over 10000 nM. Also, the CC50 in data set [2] (setting [5]) was 93 nM; in data set [3] (setting [6]), 85 nM.

As for `COc1cc(NC(=O)c2cc(N3CCN(C)CC3)ccn2)c2ncccc2c1` [Compound 105], the CC50 at 6 days in data set [1] stood at 9600 nM. For the same compound, the results for the CC50 in data set [2] (setting [7]) and in data set [3] (setting [8]) were 91 nM and 120 nM, respectively.

`O=C(Nc1cccc2cccnc12)[C@@H]1CCCN1CC1CC1` [Compound 61] yielded a CC50 at 6 days in data set [1] of over 10000 nM. The CC50 in data set [2] (setting [5]) and in data set [3] (setting [6]) was 1500 nM each time.

The compound `CN(C)CC(=O)Nc1cccc2cccnc12` [Compound 55, 2-dimethylamino-N-quinolin-8-yl-acetamide] had a CC50 at 6 days in data set [1] of over 10000 nM. Besides, the values for the CC50 in data set [2] (setting [5]) and in data set [3] (setting [6]) were 630 nM and 590 nM, respectively.

The compound `O=S(=O)(Nc1cccc2nccnc12)c1ccccn1` [Compound 78] displayed a CC50 at 6 days in data set [1] of over 10000 nM. Further, the CC50 in data set [2] (setting [5]) is 2400 nM; in data set [3] (setting [6]), 4200 nM.

In data set [1], `O=C(Nc1cccc2cccnc12)c1ccccn1` [Compound 93, pyridine-2-carboxylic acid quinolin-8-ylamide hydrochloride salt] had a CC50 at 6 days of over 10000 nM. Moreover, the CC50 was 72 nM in data set [2] (setting [5]) and 71 nM in data set [3] (setting [6]).

For `CN1CCC[C@@H]1C(=O)Nc1cccc2cccnc12` [Compound 65], in data set [1], the CC50 at 6 days was over 10000 nM. The CC50 in data set [2] (setting [5]) worked out at 230 nM; in data set [3] (setting [6]), 290 nM.

In turn, `Cc1cc(NC(=O)c2ccccn2)c2ncccc2c1C` [Compound 95] registered a CC50 at 6 days in data set [1] of over 10000 nM. The CC50 stood at 150 nM in data set [2] (setting [5]) and 170 nM in data set [3] (setting [6]).

`CN1CCN(c2ccc(NS(=O)(=O)c3ccccn3)c3ncccc23)CC1` [Compound 110]: in data set [1], the CC50 at 6 days was over 10000 nM. Further, the CC50 was 1500 nM in data set [2] (setting [5]) and 1300 nM in data set [3] (setting [6]).

Turning to `O=C(Nc1cccc2cccnc12)c1ncccc1OCc1ccccc1` [Compound 47, 3-benzyloxypyridine-2-carboxylic acid quinolin-8-ylamide], in data set [1], the CC50 at 6 days was over 10000 nM. Further, the CC50 was determined as 280 nM in data set [2] (setting [5]) and 400 nM in data set [3] (setting [6]).

On to `Cc1ccc(NC(=O)c2ccccn2)c2ncccc12` [Compound 96], for which the CC50 at 6 days in data set [1] was over 10000 nM. The CC50 in data set [2] (setting [5]) came out at 140 nM; in data set [3] (setting [6]), 100 nM.

For `O=C(Nc1cccc2ccnnc12)c1ccccn1` [Compound 76], the CC50 at 6 days in data set [1] is over 10000 nM. Moreover, the CC50 came to 3500 nM in data set [2] (setting [5]) and 3300 nM in data set [3] (setting [6]).

In the case of `CN1CCC[C@H]1C(=O)Nc1cccc2cccnc12` [Compound 107], the CC50 at 6 days in data set [1] was over 10000 nM. In addition, the results for the CC50 in data set [2] (setting [7]) and in data set [3] (setting [8]) were 460 nM and 410 nM, respectively.

In the case of `COc1ccnc(C(=O)Nc2cccc3cccnc23)c1` [Compound 29], the CC50 in data set [4] was over 10000 nM; in data set [2], 60 nM; in data set [3], 69 nM.

As for `O=C(Nc1cccc2cccnc12)c1cc(N2CCOCC2)ccn1` [Compound 30], the CC50 is 8000 nM in data set [4], 22 nM in data set [2] and 26 nM in data set [3].

Regarding `O=C(Nc1cccc2cccnc12)c1cc(N2CCN(CCO)CC2)ccn1` [Compound 39], the CC50 in data set [4] was over 10000 nM; in data set [2], 220 nM; in data set [3] it was 650 nM.

Turning to `O=C(Nc1ccc(Oc2ccccc2)c2cccnc12)c1ccccn1` [Compound 12], the CC50 was over 10000 nM in data set [4], 1000 nM in data set [2] (setting [7]) and 1000 nM in data set [3] (setting [8]).

Consider `O=C(Nc1cccc2cccnc12)c1cc(N2CCC(O)CC2)ccn1` [Compound 37], for which the results for the CC50 in data set [4], in data set [2] and in data set [3] were over 10000 nM, 290 nM and 310 nM, respectively.

On to `Cc1cccc(C(=O)Nc2cccc3cccnc23)n1` [Compound 25], for which the CC50 is over 10000 nM in data set [4], 2500 nM in data set [2] and 2300 nM in data set [3].

`CN1CCN(c2ccnc(C(=O)Nc3cccc4cccnc34)c2)CC1` [Compound 100, 4-(4-methylpiperazin-1-yl)pyridine-2-carboxylic acid quinolin-8-ylamide trifluoroacetate salt]: the values for the CC50 in data set [4] (trifluoroacetate salt), in data set [2] (setting [5]) and in data set [3] (setting [6]) were 2900 nM, 18 nM and 19 nM, respectively.

For `O=C(Nc1cc(-c2ccccc2)cc2cccnc12)c1ccccn1` [Compound 10], the CC50 was over 10000 nM in data set [4], 260 nM in data set [2] (setting [7]) and 380 nM in data set [3] (setting [8]).

On to `O=S(=O)(Nc1cc(Cl)c(Cl)c2cccnc12)c1ccccn1` [Compound 73], for which the CC50 was over 10000 nM in data set [4], 1100 nM in data set [2] and 1000 nM in data set [3].

`O=C(Nc1cc(N2CCOCC2)cc2cccnc12)c1ccccn1` [Compound 13]: the CC50 in data set [4] was over 10000 nM; in data set [2], 25 nM; in data set [3] it was 26 nM.

Regarding `O=C(Nc1cccc2cccnc12)c1cc(N2CCSCC2)ccn1` [Compound 44], the CC50 in data set [4] is over 10000 nM; in data set [2] (setting [7]) it was 180 nM; in data set [3] (setting [8]) it was 250 nM.

For `CN1CCC[C@H]1C(=O)Nc1cccc2cccnc12` [Compound 108, (S)-1-methyl-pyrrolidine-2-carboxylic acid quinolin-8-ylamide L-tartrate salt], the CC50 is over 10000 nM in data set [4]; 290 nM in data set [2] (VEGF 165 10 ng/mL, 6 days, Alamar blue, L-tartrate salt, read-out: VEGF LC50); 220 nM in data set [3] (b-FGF 2.5 ng/mL, 6 days, Alamar blue, L-tartrate salt, read-out: b-FGF LC50).

As to `Cc1ccc(NC(=O)c2ccccn2)c2ncccc12` [Compound 14], the CC50 in data set [4] was over 10000 nM; in data set [2], 130 nM; in data set [3] it was 170 nM.

As to `CCCOc1cccnc1C(=O)Nc1cccc2cccnc12` [Compound 23], the CC50 in data set [4] is over 10000 nM; in data set [2], 180 nM; in data set [3] it was 210 nM.

`O=C(Nc1cccc2cccnc12)c1cc2ccccc2cn1` [Compound 28]: the values for the CC50 in data set [4], in data set [2] and in data set [3] were over 10000 nM, 480 nM and 610 nM, respectively.

Turning to `O=C(Nc1cccc2cccnc12)c1ccc(-c2ccccc2)cn1` [Compound 33], the CC50 in data set [4] is over 10000 nM; in data set [2] (setting [7]), 4700 nM; in data set [3] (setting [8]), 6100 nM.

The values are drawn from US20070254894A1, “Novel small molecules with selective cytotoxicity against human microvascular endothelial cell proliferation” (priority 2006, published 2007).
